Results reported in PubChem BioAssay AID2060341 (Molecular Pharmacology Branch, DTP, NCI, 2025).
Several values for one entry are separate records, joined by “and”; a condition that tells them apart may be missing. Equal entries are not always repeated.

System: 327498-153-R-J2-PDC multicell spheroid viability
Test: Anticancer human tumor 327498-153-R-J2-PDC patient-derived uterine carcinosarcoma cell line growth inhibition [IpAb]
Conditions: for viability, T/C: stronger effect = lower value
Procedure, shortened: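 Combinations with ipatasertib or abemaciclib were tested on tumour spheroids holding HUVEC (25%) and MSC (15%) alongside 60% malignant cells. Top concentration was at or near clinical Cmax (10 microM if undefined), descending in half-log steps.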

[1] = curve of first compound, second compound 0.01 µM
[2] = curve of first compound, second compound 0.0316 µM
[3] = curve of first compound, second compound 0.1 µM
[4] = curve of first compound, second compound 0.316 µM
[5] = curve of first compound, second compound 1 µM
[6] = second compound 0.01 µM, first compound 0.0316 µM
[7] = second compound 0.01 µM, first compound 0.1 µM
[8] = second compound 0.01 µM, first compound 0.316 µM
[9] = second compound 0.01 µM, first compound 1 µM
[10] = second compound 0.0316 µM, first compound 0.0316 µM
[11] = second compound 0.0316 µM, first compound 0.1 µM
[12] = second compound 0.0316 µM, first compound 0.316 µM
[13] = second compound 0.0316 µM, first compound 1 µM
[14] = second compound 0.1 µM, first compound 0.0316 µM
[15] = second compound 0.1 µM, first compound 0.1 µM
[16] = second compound 0.1 µM, first compound 0.316 µM
[17] = second compound 0.1 µM, first compound 1 µM
[18] = second compound 0.316 µM, first compound 0.0316 µM
[19] = second compound 0.316 µM, first compound 0.1 µM
[20] = second compound 0.316 µM, first compound 0.316 µM
[21] = second compound 0.316 µM, first compound 1 µM
[22] = second compound 1 µM, first compound 0.0316 µM
[23] = second compound 1 µM, first compound 0.1 µM
[24] = second compound 1 µM, first compound 0.316 µM
[25] = second compound 1 µM, first compound 1 µM
[26] = second compound 0.1 µM, first compound 0.00949 µM
[27] = second compound 0.1 µM, first compound 0.03 µM
[28] = second compound 0.1 µM, first compound 0.0949 µM
[29] = second compound 0.1 µM, first compound 0.3 µM
[30] = second compound 0.316 µM, first compound 0.00949 µM
[31] = second compound 0.316 µM, first compound 0.03 µM
[32] = second compound 0.316 µM, first compound 0.0949 µM
[33] = second compound 0.316 µM, first compound 0.3 µM
[34] = second compound 1 µM, first compound 0.00949 µM
[35] = second compound 1 µM, first compound 0.03 µM
[36] = second compound 1 µM, first compound 0.0949 µM
[37] = second compound 1 µM, first compound 0.3 µM
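Also: spheroids exposed to agents for 7 days.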
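For viability, T/C in this document: 100% = DMSO vehicle control viability.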

COc1c(OCCCN2CCOCC2)ccc2c3n(c(=NC(=O)c4cnc(N)nc4)nc12)CCN3 + CCN1CCN(Cc2ccc(Nc3ncc(F)c(-c4cc(F)c5nc(C)n(C(C)C)c5c4)n3)nc2)CC1
IC50 [1]: 63.7 nM
IC50 [2]: 32.1 nM
IC50 [3]: 13.9 nM
IC50 [4]: 5.63 nM
IC50 [5]: 6.38 nM
viability, T/C (second compound 0.01 µM, first compound 0.00316 µM): 81.9%
viability, T/C (second compound 0.01 µM, first compound 0.01 µM): 78.5%
viability, T/C [6]: 70.9%
viability, T/C [7]: 36.3%
viability, T/C [8]: 16.8%
viability, T/C [9]: 9.29%
viability, T/C (second compound 0.0316 µM, first compound 0.00316 µM): 70.9%
viability, T/C (second compound 0.0316 µM, first compound 0.01 µM): 60.8%
viability, T/C [10]: 52.5%
viability, T/C [11]: 24.9%
viability, T/C [12]: 12.4%
viability, T/C [13]: 8.64%
viability, T/C (second compound 0.1 µM, first compound 0.00316 µM): 63%
viability, T/C (second compound 0.1 µM, first compound 0.01 µM): 55.5%
viability, T/C [14]: 37.4%
viability, T/C [15]: 22.6%
viability, T/C [16]: 12.3%
viability, T/C [17]: 9.1%
viability, T/C (second compound 0.316 µM, first compound 0.00316 µM): 51.6%
viability, T/C (second compound 0.316 µM, first compound 0.01 µM): 48.6%
viability, T/C [18]: 38%
viability, T/C [19]: 23.3%
viability, T/C [20]: 15.3%
viability, T/C [21]: 10.6%
viability, T/C (second compound 1 µM, first compound 0.00316 µM): 51.9%
viability, T/C (second compound 1 µM, first compound 0.01 µM): 49.2%
viability, T/C [22]: 39.8%
viability, T/C [23]: 26.6%
viability, T/C [24]: 17.7%
viability, T/C [25]: 10.6%

CC(=O)c1c(C)c2cnc(Nc3ccc(N4CCNCC4)cn3)nc2n(C2CCCC2)c1=O + CCN1CCN(Cc2ccc(Nc3ncc(F)c(-c4cc(F)c5nc(C)n(C(C)C)c5c4)n3)nc2)CC1
IC50 [1]: > 300 nM
IC50 [2]: > 300 nM
IC50 [3]: > 300 nM
IC50 [4]: > 300 nM
IC50 [5]: > 300 nM
viability, T/C (second compound 0.01 µM, first compound 0.000949 µM): 91.3%
viability, T/C (second compound 0.01 µM, first compound 0.003 µM): 88.8%
viability, T/C (second compound 0.01 µM, first compound 0.00949 µM): 91%
viability, T/C (second compound 0.01 µM, first compound 0.03 µM): 82.3%
viability, T/C (second compound 0.01 µM, first compound 0.0949 µM): 70.7%
viability, T/C (second compound 0.01 µM, first compound 0.3 µM): 59.1%
viability, T/C (second compound 0.0316 µM, first compound 0.000949 µM): 77.1%
viability, T/C (second compound 0.0316 µM, first compound 0.003 µM): 74.8%
viability, T/C (second compound 0.0316 µM, first compound 0.00949 µM): 72.8%
viability, T/C (second compound 0.0316 µM, first compound 0.03 µM): 65%
viability, T/C (second compound 0.0316 µM, first compound 0.0949 µM): 59.9%
viability, T/C (second compound 0.0316 µM, first compound 0.3 µM): 54.8%
viability, T/C (second compound 0.1 µM, first compound 0.000949 µM): 66.2%
viability, T/C (second compound 0.1 µM, first compound 0.003 µM): 61%
viability, T/C [26]: 67.3%
viability, T/C [27]: 56.9%
viability, T/C [28]: 59.9%
viability, T/C [29]: 57.1%
viability, T/C (second compound 0.316 µM, first compound 0.000949 µM): 58.3%
viability, T/C (second compound 0.316 µM, first compound 0.003 µM): 58.2%
viability, T/C [30]: 62%
viability, T/C [31]: 54.6%
viability, T/C [32]: 56.4%
viability, T/C [33]: 60.6%
viability, T/C (second compound 1 µM, first compound 0.000949 µM): 55.5%
viability, T/C (second compound 1 µM, first compound 0.003 µM): 57.9%
viability, T/C [34]: 62%
viability, T/C [35]: 54.1%
viability, T/C [36]: 57.6%
viability, T/C [37]: 56.2%

CC(C)(C)c1cnc(CSc2cnc(NC(=O)C3CCNCC3)s2)o1 + CC(C)NCC(C(=O)N1CCN(c2ncnc3c2C(C)CC3O)CC1)c1ccc(Cl)cc1
IC50 [3]: 131 nM
IC50 [4]: 109 nM
IC50 [5]: 45.4 nM
IC50 (curve of first compound, second compound 3.16 µM): < 9.49 nM
IC50 (curve of first compound, second compound 10 µM): < 9.49 nM
viability, T/C [26]: 101%
viability, T/C [27]: 103%
viability, T/C [28]: 69.1%
viability, T/C [29]: 1.04%
viability, T/C (second compound 0.1 µM, first compound 0.949 µM): 0.63%
viability, T/C (second compound 0.1 µM, first compound 3 µM): 0.58%
viability, T/C [30]: 80.3%
viability, T/C [31]: 82.2%
viability, T/C [32]: 56.9%
viability, T/C [33]: 0.5%
viability, T/C (second compound 0.316 µM, first compound 0.949 µM): 0.5%
viability, T/C (second compound 0.316 µM, first compound 3 µM): 0.49%
viability, T/C [34]: 56.2%
viability, T/C [35]: 57.9%
viability, T/C [36]: 37.6%
viability, T/C [37]: 0.39%
viability, T/C (second compound 1 µM, first compound 0.949 µM): 0.44%
viability, T/C (second compound 1 µM, first compound 3 µM): 0.45%
viability, T/C (second compound 3.16 µM, first compound 0.00949 µM): 48%
viability, T/C (second compound 3.16 µM, first compound 0.03 µM): 45.8%
viability, T/C (second compound 3.16 µM, first compound 0.0949 µM): 28.7%
viability, T/C (second compound 3.16 µM, first compound 0.3 µM): 0.18%
viability, T/C (second compound 3.16 µM, first compound 0.949 µM): 0.36%
viability, T/C (second compound 3.16 µM, first compound 3 µM): 0.34%
viability, T/C (second compound 10 µM, first compound 0.00949 µM): 36.6%
viability, T/C (second compound 10 µM, first compound 0.03 µM): 38%
viability, T/C (second compound 10 µM, first compound 0.0949 µM): 15.1%
viability, T/C (second compound 10 µM, first compound 0.3 µM): 0.21%
viability, T/C (second compound 10 µM, first compound 0.949 µM): 0.55%
viability, T/C (second compound 10 µM, first compound 3 µM): 0.37%

Cn1nccc1Nc1nccc(-c2ccn(C(CO)c3ccc(Cl)c(F)c3)c(=O)c2)n1 (centres undefined) + CCN1CCN(Cc2ccc(Nc3ncc(F)c(-c4cc(F)c5nc(C)n(C(C)C)c5c4)n3)nc2)CC1
IC50 [1]: 3680 nM
IC50 [2]: 1960 nM
IC50 [3]: 657 nM
IC50 [4]: < 31.6 nM
IC50 [5]: < 31.6 nM
viability, T/C [6]: 78%
viability, T/C [7]: 70.3%
viability, T/C [8]: 67%
viability, T/C [9]: 74.3%
viability, T/C (second compound 0.01 µM, first compound 3.16 µM): 53.6%
viability, T/C (second compound 0.01 µM, first compound 10 µM): 26.7%
viability, T/C [10]: 69.1%
viability, T/C [11]: 55.4%
viability, T/C [12]: 52.8%
viability, T/C [13]: 57.9%
viability, T/C (second compound 0.0316 µM, first compound 3.16 µM): 48%
viability, T/C (second compound 0.0316 µM, first compound 10 µM): 30.4%
viability, T/C [14]: 55.6%
viability, T/C [15]: 50%
viability, T/C [16]: 48.5%
viability, T/C [17]: 49.2%
viability, T/C (second compound 0.1 µM, first compound 3.16 µM): 44%
viability, T/C (second compound 0.1 µM, first compound 10 µM): 26.4%
viability, T/C [18]: 53.5%
viability, T/C [19]: 42.6%
viability, T/C [20]: 42.4%
viability, T/C [21]: 44.4%
viability, T/C (second compound 0.316 µM, first compound 3.16 µM): 41.5%
viability, T/C (second compound 0.316 µM, first compound 10 µM): 28.1%
viability, T/C [22]: 46.1%
viability, T/C [23]: 45.3%
viability, T/C [24]: 40.3%
viability, T/C [25]: 43.6%
viability, T/C (second compound 1 µM, first compound 3.16 µM): 45.3%
viability, T/C (second compound 1 µM, first compound 10 µM): 30.4%

Cc1nc(NC(=O)N2CCCC2C(N)=O)sc1-c1ccnc(C(C)(C)C(F)(F)F)c1 (centres undefined)
viability, T/C (compound 0.0316 µM): 97.9% and 110%
viability, T/C (compound 0.1 µM): 95.7% and 102%
viability, T/C (compound 0.316 µM): 90% and 98.9%
viability, T/C (compound 1 µM): 77% and 89.3%
viability, T/C (compound 3.16 µM): 76.2% and 80.2%
viability, T/C (compound 10 µM): 63% and 60.7%
IC50 (curve of compound): > 10000 nM

CC1(C)CCC(CN2CCN(c3ccc(C(=O)NS(=O)(=O)c4ccc(NCC5CCOCC5)c([N+](=O)[O-])c4)c(Oc4cnc5[nH]ccc5c4)c3)CC2)=C(c2ccc(Cl)cc2)C1
viability, T/C (compound 0.0316 µM): 100% and 102%
viability, T/C (compound 0.1 µM): 104% and 105%
viability, T/C (compound 0.316 µM): 108% and 112%
viability, T/C (compound 1 µM): 102% and 108%
viability, T/C (compound 3.16 µM): 107% and 98.3%
viability, T/C (compound 10 µM): 7.23% and 3.16%
IC50 (curve of compound): 6020 nM and 5680 nM
